In publication PMC2685281 (Journal of organometallic chemistry, 2009):
Where two headings read alike, the source gives them in different places.

Assays:
[1] = molecular target: T1, lipoic acid groups of the pyruvate dehydrogenase complex (Sus scrofa, UniProt A0A4X1TBD2); type: binding, porcine
T1 sequence (A0A4X1TBD2 1-647): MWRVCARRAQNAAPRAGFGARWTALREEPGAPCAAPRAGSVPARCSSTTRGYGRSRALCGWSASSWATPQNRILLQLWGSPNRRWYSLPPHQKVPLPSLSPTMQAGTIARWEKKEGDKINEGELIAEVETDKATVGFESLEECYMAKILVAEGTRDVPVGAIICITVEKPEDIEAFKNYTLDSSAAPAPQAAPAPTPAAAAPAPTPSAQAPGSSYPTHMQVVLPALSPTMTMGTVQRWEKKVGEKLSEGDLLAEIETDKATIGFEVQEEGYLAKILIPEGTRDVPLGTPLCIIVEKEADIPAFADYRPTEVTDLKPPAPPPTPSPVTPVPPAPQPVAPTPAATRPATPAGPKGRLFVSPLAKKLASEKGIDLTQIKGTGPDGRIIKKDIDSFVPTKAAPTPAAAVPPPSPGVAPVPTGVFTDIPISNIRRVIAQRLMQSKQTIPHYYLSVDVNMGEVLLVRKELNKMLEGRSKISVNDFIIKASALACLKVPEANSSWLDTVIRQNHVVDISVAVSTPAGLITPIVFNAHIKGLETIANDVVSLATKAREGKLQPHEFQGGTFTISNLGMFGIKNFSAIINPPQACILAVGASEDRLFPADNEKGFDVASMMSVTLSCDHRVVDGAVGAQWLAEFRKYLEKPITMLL

[2] = molecular target: T2, lipoic acid groups of the α-ketoglutarate dehydrogenase complex (Sus scrofa, UniProt Q9N0F1); type: binding, porcine
T2 sequence (Q9N0F1 69-455): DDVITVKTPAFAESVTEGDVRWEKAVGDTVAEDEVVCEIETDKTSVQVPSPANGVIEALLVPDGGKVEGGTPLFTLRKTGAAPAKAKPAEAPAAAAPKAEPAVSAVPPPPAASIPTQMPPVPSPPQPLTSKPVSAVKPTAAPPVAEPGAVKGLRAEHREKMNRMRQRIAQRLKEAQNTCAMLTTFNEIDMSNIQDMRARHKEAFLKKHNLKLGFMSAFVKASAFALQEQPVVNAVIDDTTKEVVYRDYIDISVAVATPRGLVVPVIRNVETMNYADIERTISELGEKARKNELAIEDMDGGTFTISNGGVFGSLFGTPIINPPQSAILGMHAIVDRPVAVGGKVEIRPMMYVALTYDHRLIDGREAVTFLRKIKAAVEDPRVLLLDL

[3] = molecular target: pyruvate dehydrogenase (PDH) complex; type: biochemical, porcine
[4] = molecular target: α-ketoglutarate dehydrogenase (KGDH) complex (Sus scrofa, UniProt Q9N0F1); type: biochemical, porcine
PDH complex = settings: read-out: IC50, PDH inhibition; cited from earlier work
reduced thiol groups = settings: read-out: dissociation constants (Kd) for reduced thiol groups; cited from earlier work

| Substance | Loss of recognition of lipoic acid groups by anti-lipoic acid antibody, PDH [1] | Loss of recognition of lipoic acid groups by anti-lipoic acid antibody, KGDH [2] | 50% enzyme inhibition (IC50), PDH, half hour incubation [3] [ppb] | 50% enzyme inhibition (IC50), PDH, one hour incubation [3] [ppb] | IC50 ([3]; read-out: 50% enzyme inhibition (IC50), PDH, half hour incubation) [µM] | IC50 ([3]; read-out: 50% enzyme inhibition (IC50), PDH, one hour incubation) [µM] | 50% enzyme inhibition (IC50), KGDH, half hour incubation [4] [ppb] | 50% enzyme inhibition (IC50), KGDH, one hour incubation [4] [ppb] | IC50 ([4]; read-out: 50% enzyme inhibition (IC50), KGDH, half hour incubation) [µM] | IC50 ([4]; read-out: 50% enzyme inhibition (IC50), KGDH, one hour incubation) [µM] | IC50 (PDH complex) [µM] | Kd (reduced thiol groups) [µM] |
| --- | --- | --- | --- | --- | --- | --- | --- | --- | --- | --- | --- | --- |
| Dimethylarsonous iodide [DMA ^3+] | strong interference | strong interference |  |  |  |  |  |  |  |  |  |  |
| Sodium arsenite [As ^3+] |  |  | 704 | 267 | 9.39 | 3.56 | 733 | 488 | 9.78 | 6.51 | 116 | 5 to 124 |
